Laboratory results reported in PMC5844868, “Increased intracellular activity of MP1102 and NZ2114 against Staphylococcus aureus in vitro and in vivo” (Scientific Reports, 2018).
In brackets after ≈: the same amount, converted by molar mass. Where two headings read alike, the source gives them in different places. Peptide text beside a SMILES is read from it.

Tests used:
[1] = system: virulent staphylococcal strains; conditions: relative efficacy; cited from earlier work
Excerpt: This study is the first evaluation of the intracellular anti-staphylococcal properties of the NZ2114 derivative MP1102 using both in vitro and in vivo methods. […] As a corresponding in vivo mouse model, RAW 264.7 macrophages were chosen to evaluate in vitro intracellular activity in this study.

[2] = system: IL-1β; assay: Cytokine ELISA in S. aureus-infected RAW 264.7 cells; type: cell-based, mouse; conditions: 25 μg/ml, 24 h after infection with MRSA ATCC43300; range over treatments
Protocol: (§1) To investigate the effects of MP1102 and NZ2114 on cytokine levels in cells infected with S. aureus, RAW264.7 cells (2.5 × 10^5 cells/ml) seeded into 12-well plates were incubated with MRSA ATCC43300 (MOI = 100:1) for 30 min followed by treatment with 50 μg/ml lysostaphin for 1 h to remove non-phagocytosed bacteria. The cells were then treated with 25 μg/ml MP1102, NZ2114 and vancomycin for 12 h and 24 h. Cell-free culture supernatants were collected and the concentrations of cytokines (TNF-α, IL-1β and IL-10) were determined by Jiaxuan Biotech. Co. Ltd. (Beijing, China) using an ELISA kit[58],[59].

[3] = system: IL-10; assay: as above; type: cell-based, mouse; conditions: 25 μg/ml, 24 h after treatment
Protocol: as §1

[4] = system: MSSA ATCC25923; assay: Mouse peritonitis model; type: in vivo
Protocol: The mice were infected by peritoneal injection with different S. aureus strains, including MSSA ATCC25923 (5 × 10^8 CFU), MRSA ATCC43300 (5 × 10^8 CFU) and high virulent CVCC546 (5 × 10^7 CFU), and treated with a single dose of drugs ([…], 20, 30 and 40 mg/kg for ATCC43300 and CVCC546) at 10 min after infection. Twenty-four hours after treatment, the mice were killed and peritoneal fluids were obtained by washing with 5 ml ice-cold PBS. The total number of bacteria in the fluids was determined before any further procedures and then divided into two equal fractions of 1.5 ml each for the following purposes: i) for extracellular bacteria quantification, one fraction was centrifuged for 10 min at 4 °C (300 g) and the supernatant CFU count was quantified and ii) for intracellular bacteria quantification, the other fraction was centrifuged for 5 min at 4 °C (1,000 rpm). The cells were collected and treated with 100 μg/ml gentamicin (MSSA ATCC25923) or 50 μg/ml lysostaphin (MRSA ATCC43300 and high virulent CVCC546) for 1 h at 37 °C to kill extracellular bacteria. The cells were washed twice with ice-cold PBS to remove any anti-extracellular bacterial drug. Subsequently, the cells were lysed and counted as described above for the in vitro experiment method[14],[54].

[5] = system: MSSA ATCC25923 phagocytosed by RAW 264.7 macrophages; assay: Intracellular dose-response in RAW 264.7 macrophages, 24 h; type: cell-based, Staphylococcus aureus; conditions: Hill equation
Protocol: (§2) For intracellular activity, RAW 264.7 macrophages (2.5 × 10^5 cells/ml) were seeded into a 6-well plate (1.5 ml/well) and cultured for 24 h in DMEM with 10% FBS (without antibiotics). Meanwhile, mid-log phase S. aureus strains (MSSA ATCC25923, MRSA ATCC43300 and high virulent CVCC546) were collected by centrifugation, diluted to a concentration of 2.5 × 10^7 CFU/ml in DMEM with 10% FBS (without antibiotic), and incubated with RAW 264.7 macrophages (1.5 ml/well) for 0.5 h. In total, 100 μg/ml gentamicin (for MSSA ATCC25923) or 50 μg/ml lysostaphin (for MRSA ATCC43300 and virulent CVCC546) was added to the cells and incubated for 1 h to remove non-phagocytosed bacteria. […] The numbers of intracellular bacteria were measured at 0 h and 24 h using the above method.
(§3) The Hill equation was used to analyze the dose-effect relationships of the intracellular and extracellular activities of MP1102 and NZ2114 against S. aureus. The Emax, Cs and goodness of fit (R^2) were calculated by non-linear regression using GraphPad Prism version 6 (GraphPad Prism Software, San Diego, CA, USA). The other statistical procedures, means and SEMs were performed and calculated using IBM SPSS Statistics 21.0.

[6] = system: MRSA ATCC43300 phagocytosed by RAW 264.7 macrophages; assay: as above; type: cell-based, Staphylococcus aureus
Protocol: as §2, §3

[7] = system: Virulent S. aureus CVCC546 phagocytosed by RAW 264.7 macrophages; assay: as above; type: cell-based, Staphylococcus aureus
Protocol: as §2, §3

[8] = system: MSSA ATCC25923; assay: MIC in MHB at pH 7.3 and 5.0; type: cell-based; conditions: Staphylococcus aureus
[9] = system: MRSA ATCC43300; assay: MIC in MHB at pH 7.3 and 5.0; type: cell-based; conditions: Staphylococcus aureus
[10] = system: RAW 264.7 macrophages; type: cell-based, mouse; conditions: 24 h, MTT
Protocol: The cytotoxicity of MP1102 and NZ2114 was tested by a colorimetric 3-(4, 5-dimethyl-2-thiazolyl)-2, 5-diphenyl-2-H-tetrazolium bromide (MTT) assay. Cells were added into 96-well microtiter plates (2.5 × 10^4 cells/well) and incubated for 24 h. After another 24 h incubation with MP1102 and NZ2114 (1 to 256 μg/ml), MTT solution was added and incubated for 4 h. Followed the removing of the MTT, dimethyl sulfoxide (DMSO) (150 μl/well) was added and the absorbance was measured at 570 nm. Untreated cells were used as a control. The cell survival rate was calculated using the following formula: survival rate (%) = Abs570 nm of treated sample / Abs570 nm of control × 100. The cytotoxicity detection was repeated in triplicate.
118 were incubated with 1-256 μg/ml for 24 h and subsequently cell viability was determined using the MTT
119 assay. Results are means ± S.D. for three experiments.
(1 picture or pasted object on this page, not shown here)

[11] = system: high virulent S. aureus CVCC546; assay: Mouse peritonitis model; type: in vivo; conditions: 20 mg/kg, 24 h
Protocol: The mice were infected by peritoneal injection with different S. aureus strains, including MSSA ATCC25923 (5 × 10^8 CFU), MRSA ATCC43300 (5 × 10^8 CFU) and high virulent CVCC546 (5 × 10^7 CFU), and treated with a single dose of drugs (5 mg/kg for ATCC25923, 20, 30 and 40 mg/kg for ATCC43300 and CVCC546) at 10 min after infection. Twenty-four hours after treatment, the mice were killed and peritoneal fluids were obtained by washing with 5 ml ice-cold PBS. The total number of bacteria in the fluids was determined before any further procedures and then divided into two equal fractions of 1.5 ml each for the following purposes: i) for extracellular bacteria quantification, one fraction was centrifuged for 10 min at 4 °C (300 g) and the supernatant CFU count was quantified and ii) for intracellular bacteria quantification, the other fraction was centrifuged for 5 min at 4 °C (1,000 rpm). The cells were collected and treated with 100 μg/ml gentamicin (MSSA ATCC25923) or 50 μg/ml lysostaphin (MRSA ATCC43300 and high virulent CVCC546) for 1 h at 37 °C to kill extracellular bacteria. The cells were washed twice with ice-cold PBS to remove any anti-extracellular bacterial drug. Subsequently, the cells were lysed and counted as described above for the in vitro experiment method[14],[54].

[12] = system: Virulent S. aureus CVCC546; assay: Extracellular dose-response in broth, 24 h; type: cell-based, Staphylococcus aureus
Protocol: (§4) Dose-response curves for the extracellular activities of the peptides were performed as previously described with some modifications[2],[14],[56],[57]. For extracellular activity, MSSA ATCC25923, MRSA ATCC43300 and high virulent S. aureus CVCC546 cells were adjusted to a density of 10^5 CFU/ml.
as §3

[13] = system: MSSA ATCC25923; assay: Extracellular dose-response in broth, 24 h; type: cell-based, Staphylococcus aureus
Protocol: as §4, §3

[14] = system: MRSA ATCC43300; assay: Extracellular dose-response in broth, 24 h; type: cell-based, Staphylococcus aureus
Protocol: as §4, §3

[15] = system: macrophages; conditions: at 24 h; cited from earlier work
Excerpt: Due to several limitations (including protein binding conditions and differences in the pharmacokinetics) in the in vitro macrophage intracellular model, an in vivo mouse peritonitis model was also examined to further evaluate the intracellular efficiency of MP1102 and NZ2114. The intracellular bacterial killing efficacy of MP1102 and NZ2114 was decreased in vivo compared to extracellular killing, though the difference was less than the in vitro model, which may be related to the complex in vivo environment weakening the antibacterial efficiency and the eradication of extracellular bacteri ...

[16] = Intracellular, Hill equation, 95% CI in brackets
[17] = Intracellular, change at 24 h from original inoculum, extrapolated, Hill equation
[18] = Hill equation, 95% CI in brackets
[19] = change at 24 h from original inoculum, extrapolated, Hill equation
[20] = static concentration, graphical interpolation

## C[C@@H](O)[C@H]1C(=O)N2C(C(=O)O)=C(SCCN=CN)C[C@H]12 [imipenem]
[1]
  Emax: −0.9 log CFU

## CC[C@H](C)[C@@H]1NC(=O)[C@H](CO)NC(=O)[C@H](CCCCN)NC(=O)[C@@H]2CSSC[C@@H](C(=O)N[C@@H](Cc3ccc(O)cc3)C(=O)O)NC(=O)[C@H](CCCCN)NC(=O)[C@@H]3CSSC[C@H](NC(=O)[C@H](CCCCN)NC(=O)[C@H](C(C)C)NC(=O)[C@H](CC(=O)O)NC(=O)[C@H](CC(=O)O)NC(=O)[C@H](CCC(=O)O)NC(=O)[C@H](CCC(=O)O)NC(=O)[C@H](Cc4c[nH]c5ccccc45)NC(=O)[C@@H]4CCCN4C(=O)CNC(=O)[C@H](CC(N)=O)NC(=O)[C@@H](NC(=O)CNC(=O)[C@H](Cc4ccccc4)NC(=O)CN)CSSC[C@H](NC(=O)[C@H](Cc4ccc(O)cc4)NC(=O)CNC(=O)CNC(=O)[C@H](CCCCN)NC(=O)[C@H](Cc4ccc(O)cc4)NC(=O)CNC(=O)[C@H](CCCCN)NC1=O)C(=O)N[C@@H](C)C(=O)N[C@@H](CCCCN)C(=O)NCC(=O)NCC(=O)N[C@@H](Cc1ccccc1)C(=O)N[C@@H](C(C)C)C(=O)N3)C(=O)N[C@@H](Cc1c[nH]cn1)C(=O)N[C@@H](CC(N)=O)C(=O)N[C@@H](Cc1c[nH]cn1)C(=O)N2 [MP1102] (HELM PEPTIDE1{G.F.G.C.N.G.P.W.E.E.D.D.V.K.C.H.N.H.C.K.S.I.K.G.Y.K.G.G.Y.C.A.K.G.G.F.V.C.K.C.Y}$PEPTIDE1,PEPTIDE1,4:R3-30:R3|PEPTIDE1,PEPTIDE1,15:R3-37:R3|PEPTIDE1,PEPTIDE1,19:R3-39:R3$$$V2.0; N-terminus and C-terminus assumed; bridges inferred)
[2]
  suppressed production of IL-1β: 18.7 to 49.5 pg/mL
[3]
  IL-10 level change, in contrast to the decrease with NZ2114 and vancomycin: 4.8 pg/mL
[4]; 20 mg/kg and 10 mg/kg dose, data not shown
  colonies on the plates: no colonies were observed

## CC[C@H]1OC(=O)[C@H](C)[C@@H](O[C@H]2C[C@@](C)(OC)[C@@H](O)[C@H](C)O2)[C@H](C)[C@@H](O[C@@H]2O[C@H](C)C[C@H](N(C)C)[C@H]2O)[C@](C)(O)C[C@@H](C)CN(C)[C@H](C)[C@@H](O)[C@]1(C)O [azithromycin]
[1]
  Emax: −0.5 log CFU

## CN[C@H](CC(C)C)C(=O)N[C@H]1C(=O)N[C@@H](CC(N)=O)C(=O)N[C@H]2C(=O)N[C@H]3C(=O)N[C@H](C(=O)N[C@H](C(=O)O)c4cc(O)cc(O)c4-c4cc3ccc4O)[C@H](O)c3ccc(c(Cl)c3)Oc3cc2cc(c3O[C@@H]2O[C@H](CO)[C@@H](O)[C@H](O)[C@H]2O[C@H]2C[C@](C)(N)[C@H](O)[C@H](C)O2)Oc2ccc(cc2Cl)[C@H]1O [Vancomycin]
[3]
  IL-10 levels decreased by: 12.0 pg/mL
[5]; 95% CI in brackets
  EC50: 24.29 multiples of the MIC
[5]; change at 24 h from original inoculum, extrapolated to infinitely high concentration
  Emax (log CFU, 95% CI): −4.85 log CFU
[6]; [16]
  EC50: 1.10 multiples of the MIC
[6]; [17]
  Emax (log CFU, 95% CI): 0.43 log CFU
[6]; intracellular, 24 h
  resistant rates for the highest test concentrations compared to the untreated group: 93.03%
[7]; [16]
  EC50: 3.53 multiples of the MIC
[7]; [17]
  Emax (log CFU, 95% CI): 0.46 log CFU
[7]; intracellular, 24 h
  resistant rates for the highest test concentrations compared to the untreated group: 99.68%
[8]; pH 5, read-out: MICs
  MIC: < 0.004 µg/mL
[8]; pH 7.3, read-out: MICs
  MIC: 0.125 µg/mL (≈ 0.0863 µM)
[9]; pH 5, read-out: MICs
  MIC: 1 µg/mL (≈ 0.69 µM)
[9]; pH 7.3, read-out: MICs
  MIC: 1 µg/mL (≈ 0.69 µM)
[4]; 5 mg/kg, 24 h
  effect on bacterial load: no significant effects were observed
[10]; 128 μg/ml
  survival rate: 100%
[10]; 256 μg/ml
  survival rate: 85.9%
[11]
  log reduction, extracellular: 4.9 log
  log reduction, intracellular: 3.7 log
  log reduction, total: 3.9 log
[12]; [18]
  EC50: 0.92 multiples of the MIC
[12]; [19]
  Emax (log CFU, 95% CI): −5.85 log CFU
[12]; [20]
  Cs: ~1.10 multiples of the MIC
[13]; [18]
  EC50: 1.87 multiples of the MIC
[13]; [19]
  Emax (log CFU, 95% CI): −5.37 log CFU
[13]; [20]
  Cs: ~1.48 multiples of the MIC
[14]; [18]
  EC50: 5.40 multiples of the MIC
[14]; [19]
  Emax (log CFU, 95% CI): −5.89 log CFU
[14]; [20]
  Cs: ~5.88 multiples of the MIC
[15]
  accumulation in macrophages: up to 8 fold

## Cc1onc(-c2ccccc2)c1C(=O)N[C@@H]1C(=O)N2[C@@H]1SC(C)(C)[C@@H]2C(=O)O [oxacillin]
[1]
  Emax: −0.68 log CFU
